Results reported in PubChem BioAssay AID720570 (Broad Institute, 2013).

system: TC71 Ewing sarcoma viability, CellTiter-Glo ATP, 72 h; assay: cytotoxicity in EWS/Fli1-dependent TC71 cells – cell-based, luminescence, cherry-picked samples, retest, confirmation (AID 720570)

Structure (SMILES) | AC35 [µM]
C[C@H](CO)N1C[C@H](C)[C@@H](CN(C)Cc2ccc(Oc3ccccc3)cc2)Oc2ccc(NS(=O)(=O)c3ccc(Cl)cc3)cc2CC1=O | 13
Cc1ccc(/C=N/Nc2ccnc3cc(Cl)ccc23)c(C)c1 | 11.8
CCc1cccc2c(C(=O)CN3C(=O)NC4(CCCCC4)C3=O)c[nH]c12 | 4.29
CN1C2CCC1/C(=C/c1ccccn1)C(=O)/C2=C\c1ccccn1 | 1.43
C[C@H]1CN([C@@H](C)CO)C(=O)Cc2cc(NC(=O)CCCCCC(=O)Nc3ccccc3N)ccc2O[C@H]1CN(C)Cc1ccc(C(F)(F)F)cc1 | 11.6
C[C@@H]1CN([C@@H](C)CO)C(=O)c2cc(NS(=O)(=O)c3ccc(Cl)cc3)ccc2O[C@@H]1CN(C)Cc1ccc(C(=O)Nc2ccccc2N)cc1 | 12.7
CCCCc1c(Cc2ccccc2)ncn1CCc1ccccc1OC | 14.4
COc1ccc(C2=NNC(=Nc3cc(S(=O)(=O)N(C)C)ccc3C)SC2)c(OC)c1 | 11.9
COC(=O)C1=C(C)N(Cc2ccccc2C(F)(F)F)C(=NCc2ccc(OC)cc2)NC1c1ccc(C(F)(F)F)cc1 (centres undefined) | 13.5
C[C@@H]1CN([C@H](C)CO)C(=O)c2cc(NS(=O)(=O)c3ccc(Cl)cc3)ccc2O[C@@H]1CN(C)Cc1ccc(Cl)c(Cl)c1 | 21.5
CC(=O)OC1CC2(O)C3CCC4CC(O)CCC4(C)C3CCC2(C)C1C1=CC(=O)OC1 (centres undefined) | 0.797
CCCCCCCCCCCCCCCCCCNc1ccn(C2OC(COP(=O)(O)OCC3OC(n4cc(F)c(=O)[nH]c4=O)CC3O)C(O)C2O)c(=O)n1 (centres undefined) | 2.77
Cc1[nH]c(=S)sc1Cc1ccc(Cl)c(Cl)c1 | 0.898
N#CC(=C1C=CC(=NO)C(Cl)=C1)c1ccccc1 | 6.4
CN1c2ccc(-c3ccc(C#N)cc3)cc2[C@H]2[C@H](CCN2S(=O)(=O)c2cccc(F)c2)[C@H]1CO | 3.77
O=C(NC[C@@H]1N[C@@H](CO)[C@H]1c1ccc(C2=CCCCC2)cc1)c1cccc(F)c1 | 12.3
C[C@@H]1O[C@@H](O[C@H]2C[C@@H](O)[C@]3(CO)[C@H]4[C@H](O)C[C@]5(C)[C@@H](C6COC(=O)C6)CC[C@]5(O)[C@@H]4CC[C@]3(O)C2)[C@H](O)[C@H](O)[C@H]1O (some centres undefined) | 4.19
Cc1cc(C)cc(C(=O)NC(=S)Nc2ccc(Cc3ccncc3)cc2)c1 | 7.66
C[C@H](CO)N1C[C@H](C)[C@H](CN(C)Cc2ccc(C(=O)Nc3ccccc3N)cc2)Oc2ccc(N(C)C)cc2CC1=O | 6.82
CCCc1cc(=O)oc2c3c(c4c(c12)OC(C)(C)C=C4)OC(C)C(C)C3O (centres undefined) | 22.6
CCOc1cc(/C=N/Nc2cc(C)nc(-n3nc(C)cc3C)n2)ccc1O | 7.76
CN=c1scc(-c2cccs2)n1/N=C/c1ccccc1O | 21.7
O=C(O)c1ccccc1C(=O)Nc1ccc(Oc2ccc3ccccc3c2)cc1 | 9.26

Structure (SMILES) | AC35 [µM]
CCOc1ccc2nc(NC3=NC(c4ccc(OC)cc4)CC(=O)N3)nc(C)c2c1 (centres undefined) | 20.9
Nc1nc(=S)c2ncn([C@@H]3O[C@H](CO)[C@@H](O)[C@H]3O)c2[nH]1 | 1.74
CC1=NN(c2ccc(C)cc2)C(=O)/C1=C\C=C\c1ccccc1 | 18.8
COc1ccc(OC)c(/C=C/c2ccnc3ccccc23)c1 | 2.31
O=C(Nc1ccc2c(c1)OCO2)N1C[C@@H]2N[C@H](C1)C2c1ccc(C=Cc2ccccc2)cc1 (some centres undefined) | 12.8
COc1cc2c(cc1OC)C(C)N(C(=O)c1cc(Cl)nc(Cl)c1)CC2 (centres undefined) | 11.9
Cc1ccc(S(=O)(=O)Nc2ccc3c(c2)C(=O)N([C@@H](C)CO)C[C@H](C)[C@@H](CN(C)Cc2ccc(C(F)(F)F)cc2)OCCCC[C@@H](C)O3)cc1 | 11.8
Oc1c(Cl)cc(Cl)c(Cl)c1Cc1c(O)c(Cl)cc(Cl)c1Cl | 3.22
O=C1CCCC2=C1C(c1ccccn1)Nc1ccc(C(=O)c3ccccc3)cc1N2 (centres undefined) | 17.4
CN1C(=O)c2cc(NC(=O)c3ccc(Cl)cc3)ccc2OC[C@@H]2O[C@@H](CC(=O)NCc3cccc(F)c3)CC[C@H]21 | 5.21
CC(C)(C)[S@](=O)N1Cc2cc(C(=O)NCC(F)(F)F)nc(-c3cccc(-c4cccc(F)c4)c3)c2[C@@H]1CCO | 16.5
CC12CCC3C(CCC4(O)CC(O)CCC34C=NO)C1(O)CCC2C1=COC(=O)C1 (centres undefined) | 0.97
OCC1OC(n2ccc3c2ncn2ncnc32)C(O)C1O (centres undefined) | 3.83
CCN1/C(=C/C=C/c2oc3ccc(-c4ccccc4)cc3[n+]2CC)Oc2ccc(-c3ccccc3)cc21 | 2.39
O=C1NC(=O)N(Cc2ccc(F)cc2)C(=O)/C1=C\C=C\c1ccco1 | 9.09
CCCN1C/C(=C/c2ccc3c(c2)OCO3)C(=O)/C(=C/c2ccc3c(c2)OCO3)C1 | 13.6
Nc1cc2c(cc1Br)[nH]c(=O)c1ccccc12 | 23.3
N/C(=C\C(=O)c1cc(Cl)ccc1O)C(Cl)(Cl)Cl | 9.12
COc1cccc(Sc2ccccc2/C=N/NC(N)=O)c1 | 3.12
CN(C)c1ccc(C=c2c3ccccc3n3c2c2c([n+]3C)CCCC2)cc1 | 3.96
O=C(Nc1ccc(Br)cc1)c1ccc(F)c(S(=O)(=O)N2CCN(c3ccccn3)CC2)c1 | 18.2
C[C@@H]1CN([C@@H](C)CO)C(=O)Cc2cc(NC(=O)Nc3ccc(C(F)(F)F)cc3)ccc2O[C@@H]1CN(C)Cc1ccc(C(=O)Nc2ccccc2N)cc1 | 10.4
NC(Cc1ccc(C(F)(F)F)cc1)c1csc(NC(=O)Nc2ccccc2Cc2ccccc2)n1 (centres undefined) | 12.7

Structure (SMILES) | AC35 [µM]
C=C(C(=O)c1ccccc1)C(C)C(=C)C(=O)c1ccccc1 | 11.1
CC(=O)Nc1cccc(-c2ccnc3c2CC(C)(C(=O)NCc2ccc(N(C)C)cc2)O3)c1 (centres undefined) | 7.01
Nc1nc(=S)c2[nH]cnc2[nH]1 | 1.54
COc1ccc(-c2cnc3c(NC=O)cc(-c4ccccc4OC)cn23)cc1OC | 0.147
CC(C)(C)c1ccc(Oc2ccc(NC(=O)c3ccccc3C(=O)O)cn2)cc1 | 10.3
C[C@]12CC[C@H](O)C[C@H]1CC[C@@H]1C2CC[C@]2(C)[C@@H](C3=CC(=O)OC3)[C@@H](O)C[C@]12O (some centres undefined) | 9.35
Cc1ccc(/C=N/Nc2ccc3ccccc3n2)o1 | 18.4
COc1ccc(S(=O)(=O)N2CC[C@@H]3[C@H](CO)Nc4ccc(-c5ccc(C#N)cc5)cc4[C@@H]32)cc1 | 4.88
CC(C)(C)c1ccc(Oc2ccc(N)cn2)cc1 | 4.73
C[C@H](CO)N1C[C@H](C)[C@H](CN(C)Cc2ccc(C(=O)Nc3ccccc3N)cc2)Oc2ccc(NS(=O)(=O)c3cccs3)cc2C1=O | 8.61
C[C@H]1CN([C@@H](C)CO)C(=O)c2cc(NC(=O)C3CCCCC3)ccc2O[C@H]1CN(C)Cc1ccc(C(=O)Nc2ccccc2N)cc1 | 11.1
CCN1C/C(=C/c2ccc(N3CCOCC3)cc2)C(=O)/C(=C/c2ccc(N3CCOCC3)cc2)C1 | 5.92
C[C@@H]1CN([C@@H](C)CO)C(=O)Cc2cc(N(C)C)ccc2O[C@H]1CN(C)Cc1ccc(C(=O)Nc2ccccc2N)cc1 | 13.1
CC(=O)OC1CC(OC2C(O)CC(OC3C(O)CC(OC4CCC5(C)C(CCC6C5CCC5(C)C(C7=CC(=O)OC7)C(O)CC65O)C4)OC3C)OC2C)OC(C)C1OC1OC(CO)C(O)C(O)C1O (centres undefined) | 2.35
COc1ccc(CC(N)c2csc(NC(=O)Nc3cccc(C(F)(F)F)c3)n2)cc1 (centres undefined) | 19.1
C[C@H]1CN([C@@H](C)CO)C(=O)c2cc(N(C)C)ccc2O[C@H]1CN(C)Cc1ccc(C(=O)Nc2ccccc2N)cc1 | 12.1
C#CCOCCOCCOCCNc1nc(N2CCN(C(=O)CCCCCCCCCCNC(=O)Cn3cc(C[C@@H](C)O)nn3)CC2)nc(N2CCN(C(=O)CCCCCCCCCCNC(=O)[C@H](CO)n3cc(CCCSC)nn3)CC2)n1 | 21.5
O=C(Nc1ccccc1F)N1CCCCN2[C@H](CO)[C@H](c3ccc(/C=C/c4ccccc4)cc3)[C@H]2C1 | 10.6
Cc1ccc(C(C)C)c(OCc2ccc(C(=O)N/N=C/c3ccc(O)cc3O)cc2)c1 | 2.01
CCc1ccc(/C=C2\SC(=S)N(CCCC(=O)NCCCN3CCOCC3)C2=O)cc1 | 22.6
N#CC1C=Cc2c(ccc3ccccc23)N1C(=O)c1ccccc1 (centres undefined) | 1.45
C[C@@H]1CN([C@H](C)CO)C(=O)c2cccc(N(C)C)c2O[C@@H]1CN(C)Cc1ccc(C(=O)Nc2ccccc2N)cc1 | 16.4
O=c1[nH]c(=O)n(C2C[C@H](O)[C@@H](CO)O2)cc1C(F)(F)F (some centres undefined) | 2.59

Structure (SMILES) | AC35 [µM]
O=c1[nH]c(/C=C2\C=Nc3ccccc32)c(O)n1Cc1ccccc1F | 20.7
COC(=O)c1ccccc1-c1c2ccc(=N)cc-2oc2cc(N)ccc12 | 8.14
C[C@H]1CN([C@@H](C)CO)C(=O)Cc2cc(NC(=O)CCCCCC(=O)Nc3ccccc3N)ccc2O[C@H]1CN(C)Cc1ccc(Oc2ccccc2)cc1 | 11.5
CC(=NNc1cc(C)c2ccccc2n1)c1ccccn1 | 1.38
O=C(NC(c1ccc(F)cc1)c1ccc2ccccc2n1)C1CCN(Cc2cccc(C(F)(F)F)c2)CC1 (centres undefined) | 11.2
Nc1nc2cc3c(cc2cc1C(=O)NCCc1c[nH]c2ccccc12)OCO3 | 13.7
O=c1c2ccccc2nc(/C=C/c2cc(Br)ccc2O)n1CCCO | 13.8
N#C[C@H]1N[C@H](CO)[C@H]1c1ccc(C#Cc2ccc(F)cc2)cc1 | 18.3
CCN(Cc1ccccc1)c1ccc(/C=N/N=C(N)N)cc1 | 15.2
CN(c1ccc(NC(=O)CCc2c[nH]c3ccccc23)cc1)c1ccccn1 | 8.74
CCCCCCCN(c1ccccc1)[C@@H]1C[C@H]2CCCC(=O)N3CC[C@@H](C1)[C@@H]23 | 1.95
Nc1ncn([C@@H]2O[C@H](CO)[C@@H](O)[C@H]2O)c(=O)n1 | 11.7
O=C(N/N=C/c1cnc(N2CCCCC2)s1)c1ccc(C(F)(F)F)cc1 | 20.9
CN1c2ccc(-c3ccc(C#N)cc3)cc2[C@H]2[C@H](CCN2S(=O)(=O)c2cccc(F)c2)[C@@H]1CO | 5.53
COc1ccc(-c2cc(CNc3nc(NC(C)C)nc4cc(-c5ccccc5)sc34)on2)cc1 | 12.1
C[C@@H]1CN([C@@H](C)CO)C(=O)Cc2cc(N(C)C)ccc2O[C@@H]1CN(C)Cc1ccccc1 | 17.7
COc1ccc(C2=Nn3c(nnc3-c3ccccc3F)SC2)cc1OC1CCOC1 (centres undefined) | 4.93
C[C@H]1CCCCO[C@H](CN(C)Cc2ccc(C(F)(F)F)cc2)[C@@H](C)CN([C@@H](C)CO)C(=O)c2cc(NC(=O)Nc3ccccc3)ccc2O1 | 12.4
C=C1C(=O)O[C@@H]2[C@H]1[C@@H](OC(=O)/C(C)=C/C)C/C(C)=C\C(=O)/C=C(\C)[C@@H]2O | 9.79
C[C@@H]1CN([C@@H](C)CO)C(=O)c2cccc(NC(=O)CCCCCC(=O)Nc3ccccc3N)c2O[C@@H]1CN(C)Cc1ccc(Oc2ccccc2)cc1 | 10.6
